Laboratory results: patent US6087391A, “Method of rendering organic compounds soluble in fatty systems, novel chemical complexes of such compounds and various applications of the complexes” (priority 1994, dated 2000)

Assay: Simulation of bioavailability: availability of test compound in standardised enteric juice
Details: enteric juice pH 8.3, 37 degrees Celsius; mean over the entire experiment (60-240 minutes); mean of two experiments
Experimental: 5 g of test compound either pure or in ethanolic solution was mixed with 5-20 g of the below mentioned carrier. After vigorously mixing ethanol was removed by evaporation.
The following carrier was used: diacetylated monoglyceride with the following fatty acid composition based on the monoglyceride: about 50% lauric acid (12:0), 20% myristic acid (14:0), 15% caprylic/capric acid (8:0 and 10:0) and 10% palmitic acid (16:0).
The pH was adjusted to 8.3.
0.500 g complex and 50 ml of standardised enteric juice was mixed in a 100 ml vessel and placed on a shaking water bath at 37 degrees Celsius under moderate agitation. As controls pure test compound corresponding to 0.500 g complex was used instead of 0.500 g complex.
Samples of 1.000 ml were collected after 60, 120, 180 and 240 minutes. The samples were extracted with 1.5 ml of 1-butanol. The concentration of test compound in the enteric juice was determined by an appropriate method (spectrophotometrically or by HPLC).

COC1=C(OC)C(=O)C(C/C=C(\C)CC/C=C(\C)CC/C=C(\C)CC/C=C(\C)CC/C=C(\C)CC/C=C(\C)CC/C=C(\C)CC/C=C(\C)CC/C=C(\C)CCC=C(C)C)=C(C)C1=O [Q10, coenzyme Q10]
availability in the complex form compared to pure test compound: 2,2 times
